Data taken from patent US20230017045A1, “PYRIDINE AND PYRIMIDINE CARBOXYLATE HERBICIDES AND METHODS OF USE THEREOF” (Dow AgroSciences LLC, priority 2017, published 2023).

The molecules below were run on test plant species (assay: Post-emergent herbicidal activity test (greenhouse, foliar spray, visual growth reduction)). Conditions: post-emergence, 336 h, ECHCG: barnyardgrass (Echinochloa crus-galli), 140 g ai/ha, 14 days after application, read-out: Visual Growth Reduction (%) 14 Days After Application, ECHCG.
Format: in vivo
Method in brief: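 Visual percent injury (0-100) rated 14 d after treatment, relative to nontreated and solvent-blank plants. Test plants at first or second true leaf stage received an overhead track-sprayer application at 187 L/ha. Compounds were formulated in aqueous acetone/DMSO carrier containing crop oil concentrate and X-77 surfactant.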

SMILES | pest or weed control at 140 g/ha
COC(=O)c1nc(-c2cc(C#N)c(C(F)(F)F)cc2Cl)ccc1Cl [F326, Methyl 3-chloro-6-(2-chloro-5-cyano-4-(trifluoromethyl)phenyl)picolinate] | 75 to 84%
COC(=O)c1nc(-c2cc(F)c(Cl)c(OC)c2)ccc1Cl [F278, Methyl 3-chloro-6-(4-chloro-3-fluoro-5-methoxyphenyl) picolinate] | 0 to 29%
COC(=O)c1nc(-c2ccc3ncoc3c2)ccc1Cl [F262, Methyl 6-(benzo[d]oxazol-6-yl)-3-chloropicolinate] | 0 to 29%

Same assay, conditions: post-emergence, 336 h, IPOHE: ivy-leaf morning glory (Ipomoea hederacea), 140 g ai/ha, 14 days after application, read-out: Visual Growth Reduction (%) 14 Days After Application, IPOHE

SMILES | pest or weed control at 140 g/ha
COC(=O)c1nc(-c2cc(C#N)c(C(F)(F)F)cc2Cl)ccc1Cl [F326, Methyl 3-chloro-6-(2-chloro-5-cyano-4-(trifluoromethyl)phenyl)picolinate] | 0 to 29%
COC(=O)c1nc(-c2cc(F)c(Cl)c(OC)c2)ccc1Cl [F278, Methyl 3-chloro-6-(4-chloro-3-fluoro-5-methoxyphenyl) picolinate] | 0 to 29%
COC(=O)c1nc(-c2ccc3ncoc3c2)ccc1Cl [F262, Methyl 6-(benzo[d]oxazol-6-yl)-3-chloropicolinate] | 30 to 44%

Same assay, conditions: post-emergence, 336 h, KCHSC: kochia (Bassia scoparia), 140 g ai/ha, 14 days after application, read-out: Visual Growth Reduction (%) 14 Days After Application, KCHSC

SMILES | pest or weed control at 140 g/ha
COC(=O)c1nc(-c2cc(C#N)c(C(F)(F)F)cc2Cl)ccc1Cl [F326, Methyl 3-chloro-6-(2-chloro-5-cyano-4-(trifluoromethyl)phenyl)picolinate] | 0 to 29%
COC(=O)c1nc(-c2cc(F)c(Cl)c(OC)c2)ccc1Cl [F278, Methyl 3-chloro-6-(4-chloro-3-fluoro-5-methoxyphenyl) picolinate] | 0 to 29%
COC(=O)c1nc(-c2ccc3ncoc3c2)ccc1Cl [F262, Methyl 6-(benzo[d]oxazol-6-yl)-3-chloropicolinate] | 0 to 29%

Same assay, conditions: post-emergence, 336 h, ORYSA: rice (Oryza sativa), 140 g ai/ha, 14 days after application, read-out: Visual Growth Reduction (%) 14 Days After Application, ORYSA

SMILES | pest or weed control at 140 g/ha
COC(=O)c1nc(-c2cc(C#N)c(C(F)(F)F)cc2Cl)ccc1Cl [F326, Methyl 3-chloro-6-(2-chloro-5-cyano-4-(trifluoromethyl)phenyl)picolinate] | 0 to 29%
COC(=O)c1nc(-c2cc(F)c(Cl)c(OC)c2)ccc1Cl [F278, Methyl 3-chloro-6-(4-chloro-3-fluoro-5-methoxyphenyl) picolinate] | 0 to 29%
COC(=O)c1nc(-c2ccc3ncoc3c2)ccc1Cl [F262, Methyl 6-(benzo[d]oxazol-6-yl)-3-chloropicolinate] | 0 to 29%

Same assay, conditions: post-emergence, 336 h, SETFA: giant foxtail (Setaria faberi), 140 g ai/ha, 14 days after application, read-out: Visual Growth Reduction (%) 14 Days After Application, SETFA

SMILES | pest or weed control at 140 g/ha
COC(=O)c1nc(-c2cc(C#N)c(C(F)(F)F)cc2Cl)ccc1Cl [F326, Methyl 3-chloro-6-(2-chloro-5-cyano-4-(trifluoromethyl)phenyl)picolinate] | 30 to 44%
COC(=O)c1nc(-c2cc(F)c(Cl)c(OC)c2)ccc1Cl [F278, Methyl 3-chloro-6-(4-chloro-3-fluoro-5-methoxyphenyl) picolinate] | 0 to 29%
COC(=O)c1nc(-c2ccc3ncoc3c2)ccc1Cl [F262, Methyl 6-(benzo[d]oxazol-6-yl)-3-chloropicolinate] | 0 to 29%

Same assay, conditions: post-emergence, 336 h, SORVU: grain sorghum (Sorghum vulgare), 140 g ai/ha, 14 days after application, read-out: Visual Growth Reduction (%) 14 Days After Application, SORVU

SMILES | pest or weed control at 140 g/ha
COC(=O)c1nc(-c2cc(C#N)c(C(F)(F)F)cc2Cl)ccc1Cl [F326, Methyl 3-chloro-6-(2-chloro-5-cyano-4-(trifluoromethyl)phenyl)picolinate] | 95 to 100%
COC(=O)c1nc(-c2cc(F)c(Cl)c(OC)c2)ccc1Cl [F278, Methyl 3-chloro-6-(4-chloro-3-fluoro-5-methoxyphenyl) picolinate] | 0 to 29%
COC(=O)c1nc(-c2ccc3ncoc3c2)ccc1Cl [F262, Methyl 6-(benzo[d]oxazol-6-yl)-3-chloropicolinate] | 0 to 29%

Same assay, conditions: post-emergence, 336 h, STEME: common chickweed (Stellaria media), 140 g ai/ha, 14 days after application, read-out: Visual Growth Reduction (%) 14 Days After Application, STEME

SMILES | pest or weed control at 140 g/ha
COC(=O)c1nc(-c2cc(C#N)c(C(F)(F)F)cc2Cl)ccc1Cl [F326, Methyl 3-chloro-6-(2-chloro-5-cyano-4-(trifluoromethyl)phenyl)picolinate] | 0 to 29%
COC(=O)c1nc(-c2cc(F)c(Cl)c(OC)c2)ccc1Cl [F278, Methyl 3-chloro-6-(4-chloro-3-fluoro-5-methoxyphenyl) picolinate] | 0 to 29%
COC(=O)c1nc(-c2ccc3ncoc3c2)ccc1Cl [F262, Methyl 6-(benzo[d]oxazol-6-yl)-3-chloropicolinate] | 0 to 29%

Same assay, conditions: post-emergence, 336 h, TRZAS: wheat, spring (Triticum aestivum), 140 g ai/ha, 14 days after application, read-out: Visual Growth Reduction (%) 14 Days After Application, TRZAS

SMILES | pest or weed control at 140 g/ha
COC(=O)c1nc(-c2cc(C#N)c(C(F)(F)F)cc2Cl)ccc1Cl [F326, Methyl 3-chloro-6-(2-chloro-5-cyano-4-(trifluoromethyl)phenyl)picolinate] | 0 to 29%
COC(=O)c1nc(-c2cc(F)c(Cl)c(OC)c2)ccc1Cl [F278, Methyl 3-chloro-6-(4-chloro-3-fluoro-5-methoxyphenyl) picolinate] | 0 to 29%
COC(=O)c1nc(-c2ccc3ncoc3c2)ccc1Cl [F262, Methyl 6-(benzo[d]oxazol-6-yl)-3-chloropicolinate] | 0 to 29%

Same assay, conditions: post-emergence, 336 h, blackgrass (Alopecurus myosuroides), 14 Days After Application, 140 g ai/ha, read-out: Visual Growth Reduction (%) ALOMY

SMILES | pest or weed control at 140 g/ha
COC(=O)c1nc(-c2cc(C#N)c(C(F)(F)F)cc2Cl)ccc1Cl [F326, Methyl 3-chloro-6-(2-chloro-5-cyano-4-(trifluoromethyl)phenyl)picolinate] | 0 to 29%
COC(=O)c1nc(-c2cc(F)c(Cl)c(OC)c2)ccc1Cl [F278, Methyl 3-chloro-6-(4-chloro-3-fluoro-5-methoxyphenyl) picolinate] | 0 to 29%
COC(=O)c1nc(-c2ccc3ncoc3c2)ccc1Cl [F262, Methyl 6-(benzo[d]oxazol-6-yl)-3-chloropicolinate] | 0 to 29%

Same assay, conditions: post-emergence, 336 h, canada thistle (Cirsium arvense), 14 Days After Application, 140 g ai/ha, read-out: Visual Growth Reduction (%) CIRAR

SMILES | pest or weed control at 140 g/ha
COC(=O)c1nc(-c2cc(C#N)c(C(F)(F)F)cc2Cl)ccc1Cl [F326, Methyl 3-chloro-6-(2-chloro-5-cyano-4-(trifluoromethyl)phenyl)picolinate] | 45 to 59%
COC(=O)c1nc(-c2cc(F)c(Cl)c(OC)c2)ccc1Cl [F278, Methyl 3-chloro-6-(4-chloro-3-fluoro-5-methoxyphenyl) picolinate] | 0 to 29%
COC(=O)c1nc(-c2ccc3ncoc3c2)ccc1Cl [F262, Methyl 6-(benzo[d]oxazol-6-yl)-3-chloropicolinate] | 0 to 29%

Same assay, conditions: post-emergence, 336 h, crabgrass (Digitaria sanguinalis), 14 Days After Application, 140 g ai/ha, read-out: Visual Growth Reduction (%) DIGSA

SMILES | pest or weed control at 140 g/ha
COC(=O)c1nc(-c2cc(C#N)c(C(F)(F)F)cc2Cl)ccc1Cl [F326, Methyl 3-chloro-6-(2-chloro-5-cyano-4-(trifluoromethyl)phenyl)picolinate] | 75 to 84%
COC(=O)c1nc(-c2cc(F)c(Cl)c(OC)c2)ccc1Cl [F278, Methyl 3-chloro-6-(4-chloro-3-fluoro-5-methoxyphenyl) picolinate] | 0 to 29%
COC(=O)c1nc(-c2ccc3ncoc3c2)ccc1Cl [F262, Methyl 6-(benzo[d]oxazol-6-yl)-3-chloropicolinate] | 0 to 29%

Same assay, conditions: post-emergence, 336 h, lambsquarters (Chenopodium album), 14 Days After Application, 140 g ai/ha, read-out: Visual Growth Reduction (%) CHEAL

SMILES | pest or weed control at 140 g/ha
COC(=O)c1nc(-c2cc(C#N)c(C(F)(F)F)cc2Cl)ccc1Cl [F326, Methyl 3-chloro-6-(2-chloro-5-cyano-4-(trifluoromethyl)phenyl)picolinate] | 60 to 74%
COC(=O)c1nc(-c2cc(F)c(Cl)c(OC)c2)ccc1Cl [F278, Methyl 3-chloro-6-(4-chloro-3-fluoro-5-methoxyphenyl) picolinate] | 0 to 29%
COC(=O)c1nc(-c2ccc3ncoc3c2)ccc1Cl [F262, Methyl 6-(benzo[d]oxazol-6-yl)-3-chloropicolinate] | 30 to 44%

Same assay, conditions: post-emergence, 336 h, redroot pigweed (Amaranthus retroflexus), 14 Days After Application, 140 g ai/ha, read-out: Visual Growth Reduction (%) AMARE

SMILES | pest or weed control at 140 g/ha
COC(=O)c1nc(-c2cc(C#N)c(C(F)(F)F)cc2Cl)ccc1Cl [F326, Methyl 3-chloro-6-(2-chloro-5-cyano-4-(trifluoromethyl)phenyl)picolinate] | 0 to 29%
COC(=O)c1nc(-c2cc(F)c(Cl)c(OC)c2)ccc1Cl [F278, Methyl 3-chloro-6-(4-chloro-3-fluoro-5-methoxyphenyl) picolinate] | 0 to 29%
COC(=O)c1nc(-c2ccc3ncoc3c2)ccc1Cl [F262, Methyl 6-(benzo[d]oxazol-6-yl)-3-chloropicolinate] | 0 to 29%

Same assay, conditions: post-emergence, 336 h, wild oat (Avena fatua), 14 Days After Application, 140 g ai/ha, read-out: Visual Growth Reduction (%) AVEFA

SMILES | pest or weed control at 140 g/ha
COC(=O)c1nc(-c2cc(C#N)c(C(F)(F)F)cc2Cl)ccc1Cl [F326, Methyl 3-chloro-6-(2-chloro-5-cyano-4-(trifluoromethyl)phenyl)picolinate] | 0 to 29%
COC(=O)c1nc(-c2cc(F)c(Cl)c(OC)c2)ccc1Cl [F278, Methyl 3-chloro-6-(4-chloro-3-fluoro-5-methoxyphenyl) picolinate] | 0 to 29%
COC(=O)c1nc(-c2ccc3ncoc3c2)ccc1Cl [F262, Methyl 6-(benzo[d]oxazol-6-yl)-3-chloropicolinate] | 0 to 29%

Same assay, conditions: post-emergence, 336 h, yellow nutsedge (Cyperus esculentus), 14 Days After Application, 140 g ai/ha, read-out: Visual Growth Reduction (%) CYPES

SMILES | pest or weed control at 140 g/ha
COC(=O)c1nc(-c2cc(C#N)c(C(F)(F)F)cc2Cl)ccc1Cl [F326, Methyl 3-chloro-6-(2-chloro-5-cyano-4-(trifluoromethyl)phenyl)picolinate] | 0 to 29%
COC(=O)c1nc(-c2cc(F)c(Cl)c(OC)c2)ccc1Cl [F278, Methyl 3-chloro-6-(4-chloro-3-fluoro-5-methoxyphenyl) picolinate] | 0 to 29%
COC(=O)c1nc(-c2ccc3ncoc3c2)ccc1Cl [F262, Methyl 6-(benzo[d]oxazol-6-yl)-3-chloropicolinate] | 0 to 29%
